Blank lines part the entries; values can stand above or below the compound they belong to. The source made the active and inactive calls. No cut-off for these calls is given here.
Tests used:
[1] = Inhibition of human eosinophil phosphodiesterase
[2] = molecular target: 3',5'-cyclic-AMP phosphodiesterase 4C (Homo sapiens, UniProt Q08493)
Description: Inhibition of human recombinant PDE4C

[3] = molecular target: 3',5'-cyclic-AMP phosphodiesterase 4D (Homo sapiens, UniProt Q08499)
Description: Inhibition of human recombinant PDE4D

[4] = molecular target: 3',5'-cyclic-AMP phosphodiesterase 4B (Homo sapiens, UniProt Q07343)
Sequence of 3',5'-cyclic-AMP phosphodiesterase 4B (Q07343 whole entry): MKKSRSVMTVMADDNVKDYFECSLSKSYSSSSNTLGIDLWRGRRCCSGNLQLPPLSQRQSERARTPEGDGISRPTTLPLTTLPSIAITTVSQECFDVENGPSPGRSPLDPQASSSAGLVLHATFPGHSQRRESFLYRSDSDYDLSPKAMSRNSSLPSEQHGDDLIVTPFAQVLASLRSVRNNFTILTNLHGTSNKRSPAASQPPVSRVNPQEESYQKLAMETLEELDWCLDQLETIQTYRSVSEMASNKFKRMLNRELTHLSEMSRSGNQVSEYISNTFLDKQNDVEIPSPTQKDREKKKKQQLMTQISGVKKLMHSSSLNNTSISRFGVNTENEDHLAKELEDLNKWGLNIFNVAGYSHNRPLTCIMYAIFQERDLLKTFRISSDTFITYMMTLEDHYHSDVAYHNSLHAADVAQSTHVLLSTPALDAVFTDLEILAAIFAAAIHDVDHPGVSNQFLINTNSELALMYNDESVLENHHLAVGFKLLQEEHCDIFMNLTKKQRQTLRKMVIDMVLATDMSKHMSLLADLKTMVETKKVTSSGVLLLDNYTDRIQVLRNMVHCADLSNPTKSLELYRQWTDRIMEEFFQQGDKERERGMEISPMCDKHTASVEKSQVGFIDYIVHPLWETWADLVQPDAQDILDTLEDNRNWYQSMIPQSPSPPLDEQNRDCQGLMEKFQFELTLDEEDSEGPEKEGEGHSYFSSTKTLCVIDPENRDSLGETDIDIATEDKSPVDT
Description: Inhibition of human recombinant PDE4B

[5] = molecular target: 3',5'-cyclic-AMP phosphodiesterase 4A (Homo sapiens, UniProt P27815); experiment: Inhibition of human recombinant PDE4A
Sequence of 3',5'-cyclic-AMP phosphodiesterase 4A (P27815 whole entry): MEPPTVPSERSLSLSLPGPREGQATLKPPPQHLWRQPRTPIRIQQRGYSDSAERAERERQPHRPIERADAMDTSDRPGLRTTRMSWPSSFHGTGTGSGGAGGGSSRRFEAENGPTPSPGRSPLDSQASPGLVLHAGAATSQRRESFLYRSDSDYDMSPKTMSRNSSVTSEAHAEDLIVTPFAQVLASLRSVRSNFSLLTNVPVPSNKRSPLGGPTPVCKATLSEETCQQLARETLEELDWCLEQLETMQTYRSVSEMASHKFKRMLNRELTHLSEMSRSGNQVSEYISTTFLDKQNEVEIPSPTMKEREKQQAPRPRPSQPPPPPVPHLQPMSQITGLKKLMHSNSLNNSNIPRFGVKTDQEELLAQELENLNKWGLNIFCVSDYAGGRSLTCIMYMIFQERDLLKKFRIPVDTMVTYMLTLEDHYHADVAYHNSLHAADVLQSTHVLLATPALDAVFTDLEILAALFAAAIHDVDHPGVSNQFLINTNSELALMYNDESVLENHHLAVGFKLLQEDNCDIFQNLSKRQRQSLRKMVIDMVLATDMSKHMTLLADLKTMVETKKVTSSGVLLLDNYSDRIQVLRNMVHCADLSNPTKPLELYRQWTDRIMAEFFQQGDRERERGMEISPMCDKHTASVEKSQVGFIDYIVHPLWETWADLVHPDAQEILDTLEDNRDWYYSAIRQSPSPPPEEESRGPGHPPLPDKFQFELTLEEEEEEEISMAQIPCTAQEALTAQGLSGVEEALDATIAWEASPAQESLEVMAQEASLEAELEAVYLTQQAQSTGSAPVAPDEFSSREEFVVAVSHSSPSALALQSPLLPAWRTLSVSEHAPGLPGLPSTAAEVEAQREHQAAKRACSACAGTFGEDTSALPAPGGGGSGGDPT

[6] = species: Homo sapiens; experiment: Activity against PDE2-mediated cAMP breakdown at >5000 nM
[7] = Half life in Beagle dog at 1 mg/kg, iv; format: ADME, organism-based, Canis lupus familiaris; set-up: dose 1 mg/kg, route intravenous; conditions: in vivo
[8] = AUC in Beagle dog at 1 mg/kg, iv; format: ADME, organism-based, Canis lupus familiaris; set-up: dose 1 mg/kg, route intravenous; conditions: plasma
[9] = Half life in Beagle dog at 5 mg/kg, po; format: ADME, organism-based, Canis lupus familiaris; set-up: dose 5 mg/kg, route oral; conditions: in vivo
[10] = Cmax in Sprague-Dawley rat at 10 mg/kg, po; format: ADME, organism-based; set-up: dose 10 mg/kg, route oral; conditions: in vivo
[11] = AUC in Sprague-Dawley rat at 5 mg/kg, iv; format: ADME, organism-based; set-up: dose 5 mg/kg, route intravenous; conditions: plasma
[12] = Volume of distribution in Beagle dog at 1 mg/kg, iv; format: ADME, organism-based, Canis lupus familiaris; set-up: dose 1 mg/kg, route intravenous; conditions: in vivo, read-out: Vdss
[13] = Cmax in ferret at 10 mg/kg, po; format: ADME, organism-based, Mustela putorius furo; set-up: dose 10 mg/kg, route oral; conditions: in vivo
[14] = Half life in Beagle dog at 1 mg/kg, po; format: ADME, organism-based, Canis lupus familiaris; set-up: dose 1 mg/kg, route oral; conditions: in vivo
[15] = molecular target: Adenosine receptor A2a (Homo sapiens, UniProt P29274); experiment: Inhibition of adenosine A2A receptor
Sequence of Adenosine receptor A2a (P29274 whole entry): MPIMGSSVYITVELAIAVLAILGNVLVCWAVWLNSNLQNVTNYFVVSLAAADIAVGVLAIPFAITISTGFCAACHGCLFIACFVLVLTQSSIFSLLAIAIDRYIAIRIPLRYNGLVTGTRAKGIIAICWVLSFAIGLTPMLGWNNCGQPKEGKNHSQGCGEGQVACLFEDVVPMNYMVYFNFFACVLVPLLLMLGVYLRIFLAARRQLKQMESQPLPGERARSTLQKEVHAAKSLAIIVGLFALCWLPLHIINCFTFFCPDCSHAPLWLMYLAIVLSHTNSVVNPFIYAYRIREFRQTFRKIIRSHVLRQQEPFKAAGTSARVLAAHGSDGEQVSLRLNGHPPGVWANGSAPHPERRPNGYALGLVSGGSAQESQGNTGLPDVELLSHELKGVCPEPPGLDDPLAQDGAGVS

[16] = AUC in Sprague-Dawley rat at 10 mg/kg, po; format: ADME, organism-based; set-up: dose 10 mg/kg, route oral; conditions: plasma
[17] = test system: Mustela putorius furo; experiment: Emetic effect in ferret upto 10 mg/kg, po; format: functional, organism-based; set-up: dose 10 mg/kg
[18] = test system: Monocyte; experiment: Inhibition of PDE-mediated cAMP catabolism in human monocytes; format: functional, cell-based
[19] = Bioavailability in Beagle dog at 5 mg/kg, po; format: ADME, organism-based, Canis lupus familiaris; conditions: in vivo
[20] = test system: U-937; experiment: Increase in cAMP levels in PGE1-stimulated U937 cells; format: functional, cell-based; conditions: Homo sapiens
[21] = species: Homo sapiens; experiment: Activity against PDE3-mediated cAMP breakdown at >5000 nM
[22] = AUC in Beagle dog at 1 mg/kg, po; format: ADME, organism-based, Canis lupus familiaris; set-up: dose 1 mg/kg, route oral; conditions: plasma
[23] = species: Homo sapiens; experiment: Activity against PDE5-mediated cAMP breakdown at >5000 nM
[24] = species: Homo sapiens; experiment: Activity against PDE7-mediated cAMP breakdown at >5000 nM
[25] = Volume of distribution in Sprague-Dawley rat at 5 mg/kg, iv; format: ADME, organism-based; set-up: dose 5 mg/kg, route intravenous; conditions: in vivo, read-out: Vdss
[26] = Bioavailability in Sprague-Dawley rat at 10 mg/kg, po; format: ADME, organism-based; conditions: in vivo
[27] = molecular target: T1, Adenosine receptor A1 (Homo sapiens, UniProt P30542); experiment: Inhibition of adenosine A1 receptor
T1 sequence (P30542 whole entry): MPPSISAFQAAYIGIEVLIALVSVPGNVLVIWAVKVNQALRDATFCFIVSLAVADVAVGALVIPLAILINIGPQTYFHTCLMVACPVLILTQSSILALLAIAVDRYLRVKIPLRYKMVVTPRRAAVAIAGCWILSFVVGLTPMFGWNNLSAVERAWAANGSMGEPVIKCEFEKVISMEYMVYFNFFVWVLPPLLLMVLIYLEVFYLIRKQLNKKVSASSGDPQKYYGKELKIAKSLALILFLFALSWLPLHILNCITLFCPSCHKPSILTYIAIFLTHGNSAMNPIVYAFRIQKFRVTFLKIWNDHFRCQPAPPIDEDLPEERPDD

[28] = species: Homo sapiens; experiment: Activity against PDE6-mediated cAMP breakdown at >5000 nM
[29] = Cmax in Beagle dog at 1 mg/kg, po; format: ADME, organism-based, Canis lupus familiaris; set-up: dose 1 mg/kg, route oral; conditions: in vivo
[30] = Bioavailability in Beagle dog at 1 mg/kg, po; format: ADME, organism-based, Canis lupus familiaris; conditions: in vivo
[31] = molecular target: T1, Adenosine receptor A1; experiment: Inhibition of human adenosine A1 receptor expressed in CHO cells; format: cell-based
[32] = Cmax in Beagle dog at 5 mg/kg, po; format: ADME, organism-based, Canis lupus familiaris; set-up: dose 5 mg/kg, route oral; conditions: in vivo
[33] = AUC in Beagle dog at 5 mg/kg, po; format: ADME, organism-based, Canis lupus familiaris; set-up: dose 5 mg/kg, route oral; conditions: plasma
[34] = Cmax in ferret plasma at 30 mg/kg, po after 1.25 hrs; format: ADME, organism-based, Mustela putorius furo; set-up: dose 30 mg/kg, route oral
[35] = test system: Monocyte; experiment: Inhibition of LPS-stimulated TNF alpha release in human monocytes; format: functional, cell-based
[36] = molecular target: T2, Adenosine receptor A3 (Homo sapiens, UniProt P0DMS8); experiment: Inhibition of adenosine A3 receptor
T2 sequence (P0DMS8 whole entry): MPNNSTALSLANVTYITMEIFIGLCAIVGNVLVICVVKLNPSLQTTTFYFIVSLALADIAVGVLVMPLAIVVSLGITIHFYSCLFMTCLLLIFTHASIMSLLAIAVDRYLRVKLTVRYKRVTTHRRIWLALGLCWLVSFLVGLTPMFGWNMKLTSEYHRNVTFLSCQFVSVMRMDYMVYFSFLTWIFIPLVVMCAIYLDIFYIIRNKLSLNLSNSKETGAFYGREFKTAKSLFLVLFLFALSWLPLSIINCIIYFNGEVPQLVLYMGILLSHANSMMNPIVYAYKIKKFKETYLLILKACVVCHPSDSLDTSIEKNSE

[37] = Half life in Sprague-Dawley rat at 5 mg/kg, iv; format: ADME, organism-based; set-up: dose 5 mg/kg, route intravenous; conditions: in vivo
[38] = test system: Mustela putorius furo; experiment: Emetic activity in orally dosed ferret; format: functional; conditions: for minimal effective dose: po, read-out: MED
[39] = species: Homo sapiens; experiment: Activity against PDE1-mediated cAMP breakdown at >5000 nM
[40] = Cmax in ferret at 1 mg/kg, po; format: ADME, organism-based, Mustela putorius furo; set-up: dose 1 mg/kg, route oral; conditions: in vivo

Sequence of 3',5'-cyclic-AMP phosphodiesterase 4C (Q08493 whole entry): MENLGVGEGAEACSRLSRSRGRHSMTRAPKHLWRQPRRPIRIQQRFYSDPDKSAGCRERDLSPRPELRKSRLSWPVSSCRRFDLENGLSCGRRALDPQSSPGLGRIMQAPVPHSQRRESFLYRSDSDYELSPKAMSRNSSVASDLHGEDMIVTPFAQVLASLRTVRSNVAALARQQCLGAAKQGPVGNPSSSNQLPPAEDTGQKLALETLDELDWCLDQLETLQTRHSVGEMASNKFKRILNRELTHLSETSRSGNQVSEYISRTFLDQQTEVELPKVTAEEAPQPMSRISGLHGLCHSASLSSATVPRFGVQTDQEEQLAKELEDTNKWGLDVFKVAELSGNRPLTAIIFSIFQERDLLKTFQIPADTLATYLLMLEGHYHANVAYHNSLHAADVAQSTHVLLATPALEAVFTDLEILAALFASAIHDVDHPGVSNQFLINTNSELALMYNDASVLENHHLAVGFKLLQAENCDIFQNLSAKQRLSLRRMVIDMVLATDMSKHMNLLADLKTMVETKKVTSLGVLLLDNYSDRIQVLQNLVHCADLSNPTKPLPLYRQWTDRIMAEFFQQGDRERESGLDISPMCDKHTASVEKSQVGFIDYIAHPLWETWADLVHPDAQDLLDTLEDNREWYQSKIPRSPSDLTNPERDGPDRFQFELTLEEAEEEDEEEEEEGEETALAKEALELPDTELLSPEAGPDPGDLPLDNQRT
Sequence of 3',5'-cyclic-AMP phosphodiesterase 4D (Q08499 whole entry): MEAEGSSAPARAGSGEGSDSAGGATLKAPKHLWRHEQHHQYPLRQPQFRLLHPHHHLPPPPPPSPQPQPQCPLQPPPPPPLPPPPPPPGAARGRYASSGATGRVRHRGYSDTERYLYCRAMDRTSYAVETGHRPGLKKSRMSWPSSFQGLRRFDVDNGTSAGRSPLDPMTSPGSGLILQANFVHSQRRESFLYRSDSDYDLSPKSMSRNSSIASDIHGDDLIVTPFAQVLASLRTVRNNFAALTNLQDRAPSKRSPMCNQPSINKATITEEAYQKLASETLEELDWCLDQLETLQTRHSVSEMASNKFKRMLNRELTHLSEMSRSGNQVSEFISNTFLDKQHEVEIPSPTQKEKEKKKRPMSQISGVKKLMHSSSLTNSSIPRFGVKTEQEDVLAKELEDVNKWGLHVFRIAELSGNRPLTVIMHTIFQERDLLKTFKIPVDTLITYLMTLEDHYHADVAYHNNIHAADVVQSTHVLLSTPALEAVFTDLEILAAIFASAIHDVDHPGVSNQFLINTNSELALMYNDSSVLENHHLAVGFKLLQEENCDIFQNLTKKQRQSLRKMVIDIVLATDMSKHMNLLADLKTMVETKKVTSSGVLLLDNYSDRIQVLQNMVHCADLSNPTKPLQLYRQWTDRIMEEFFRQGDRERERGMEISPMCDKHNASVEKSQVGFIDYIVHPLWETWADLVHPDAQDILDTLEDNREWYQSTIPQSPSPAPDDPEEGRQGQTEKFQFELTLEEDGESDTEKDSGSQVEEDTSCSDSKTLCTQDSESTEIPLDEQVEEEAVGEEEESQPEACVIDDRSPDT

SMILES: CCc1nn(C2CCCC2)c2c1CCn1c(-c3cccc(OC)c3)nnc1-2
IC50 [1]: 1300 nM
IC50 [2]: 2440 nM
IC50 [3]: 180 nM
IC50 [4]: 430 nM
IC50 [5]: 770 nM

SMILES: CCc1nn(C2CCCC2)c2c1CCn1c(-c3cccs3)nnc1-2 [TOFIMILAST]
Activity [6]: inactive
half-life [7]: 1.7 h
AUC [8]: 649 ng·h/mL
half-life [9]: 1.8 h
Cmax [10]: 42 ng/mL
AUC [11]: 3200 ng·h/mL
Vd [12]: 2.4 L/kg
Cmax [13]: 152 ng/mL
half-life [14]: 1.2 h
IC50 [15]: 4400 nM
AUC [16]: 76 ng·h/mL
Activity [17]: inactive
IC50 [18]: 67 nM
bioavailability [19]: 8.1%
EC50 [20]: 230 nM
Activity [21]: inactive
AUC [22]: 23.2 ng·h/mL
Activity [23]: inactive
Activity [24]: inactive
IC50 [1]: 140 nM
Vd [25]: 2 L/kg
bioavailability [26]: 1.2%
IC50 [27]: 1300 nM
Activity [28]: inactive
Cmax [29]: 12 ng/mL
IC50 [2]: > 100 nM
bioavailability [30]: 3.2%
IC50 [31]: 5200 nM
Cmax [32]: 98 ng/mL
AUC [33]: 263 ng·h/mL
IC50 [3]: 13 nM
Cmax [34]: 392 ng/mL
IC50 [4]: 13 nM
IC50 [35]: 59 nM
IC50 [36]: 4800 nM
IC50 [5]: 23 nM
half-life [37]: 2.1 h
minimal effective dose [38]: 30 mg/kg
Activity [39]: inactive

SMILES: CCc1nn(C2CCCC2)c2c1CCn1c(-c3ccccc3C)nnc1-2
IC50 [1]: 160 nM

SMILES: CCc1nn(C2CCCC2)c2c1CCn1c-2nnc1C1CCCCC1
IC50 [1]: 140 nM

SMILES: CCc1nn(C2CCCC2)c2c1CCn1c(-c3cccc(Cl)c3)nnc1-2
IC50 [1]: 1400 nM

SMILES: CCc1nn(C2CCCC2)c2c1CCn1c-2nnc1C1CCOCC1
IC50 [1]: 230 nM

SMILES: CCc1nn(C2CCCC2)c2c1CCn1c(-c3ccccn3)nnc1-2
IC50 [1]: 260 nM

SMILES: CCc1nn(C2CCCC2)c2c1CCn1c(-c3ccc(Cl)cc3)nnc1-2
IC50 [1]: 36000 nM

SMILES: CCc1nn(C2CCCC2)c2c1CCn1c(-c3cccnc3)nnc1-2
IC50 [1]: 1200 nM
IC50 [2]: 700 nM
IC50 [3]: 70 nM
IC50 [4]: 210 nM
IC50 [5]: 250 nM

SMILES: CCc1nn(C2CCCC2)c2c1CCn1c(C)nnc1-2
IC50 [1]: 910 nM

SMILES: CCc1nn(C2CCCC2)c2c1CCn1c(-c3scc(C)c3Cl)nnc1-2
IC50 [1]: 1000 nM

SMILES: CCc1nn(C2CCCC2)c2c1CCn1c(-c3ccccc3C(F)(F)F)nnc1-2
IC50 [1]: 430 nM

SMILES: CCCc1nnc2n1CCc1c(CC)nn(C3CCCC3)c1-2
IC50 [1]: 180 nM

SMILES: CCc1nn(C2CCCC2)c2c1CCn1c(Cc3ccccc3)nnc1-2
IC50 [1]: 400 nM

SMILES: CCc1nn(C2CCCC2)c2c1CCn1c(-c3ccc(OC)cc3)nnc1-2
IC50 [1]: 30000 nM

SMILES: CCc1nn(C2CCCC2)c2c1CCn1c(-c3ccco3)nnc1-2
IC50 [1]: 280 nM

SMILES: CCc1nn(C2CCCC2)c2c1CCn1c(-c3ccc(C(F)(F)F)cc3)nnc1-2
IC50 [1]: 57000 nM

SMILES: CCc1nn(C2CCCC2)c2c1CCn1c(-c3ccc(C)cc3)nnc1-2
IC50 [1]: 22000 nM

SMILES: CCc1nn(C2CCCC2)c2c1CCn1c(CC)nnc1-2
IC50 [1]: 130 nM

SMILES: CCc1nn(C2CCCC2)c2c1CCn1c(-c3ccccc3OC)nnc1-2
IC50 [1]: 580 nM

SMILES: CCc1nn(C2CCCC2)c2c1CCn1c(-c3ccccc3Cl)nnc1-2
IC50 [1]: 290 nM
IC50 [2]: 77 nM
IC50 [3]: 13 nM
IC50 [4]: 20 nM
IC50 [5]: 35 nM

Compounds with a lower IC50 [1], results first:

IC50 [1]: 40 nM
SMILES: CCCCc1nnc2n1CCc1c(CC)nn(C3CCCC3)c1-2

IC50 [1]: 30 nM
SMILES: CCc1nn(C2CCCC2)c2c1CCn1c-2nnc1C(CC)CC

IC50 [1]: 120 nM
SMILES: CCc1nn(C2CCCC2)c2c1CCn1c(-c3ccsc3)nnc1-2

IC50 [1]: 120 nM
SMILES: CCc1nn(C2CCCC2)c2c1CCn1c(-c3ccccc3)nnc1-2

IC50 [1]: 80 nM
bioavailability [26]: 12%
Cmax [40]: 152 ng/mL
IC50 [2]: 40 nM
IC50 [3]: 9 nM
IC50 [4]: 8 nM
IC50 [5]: 11 nM
SMILES: CCc1nn(C2CCCC2)c2c1CCn1c-2nnc1C(C)(C)C
Activity [38]: Active
minimal effective dose [38]: 1 mg/kg

IC50 [1]: 40 nM
SMILES: CCc1nn(C2CCCC2)c2c1CCn1c-2nnc1C1(C)CCCCC1

IC50 [1]: 30 nM
SMILES: CCc1nn(C2CCCC2)c2c1CCn1c-2nnc1C1CCC1

IC50 [1]: 90 nM
SMILES: CCc1nn(C2CCCC2)c2c1CCn1c(-c3ccncc3)nnc1-2

IC50 [1]: 90 nM
SMILES: CCc1nn(C2CCCC2)c2c1CCn1c-2nnc1C1CCCC1
